{
  "source": "patent US4876284A",
  "about": "“1-alkyl-2-aminotetralin derivatives” (Per Arvid Emil Carlsson, priority 1981, dated 1989)",
  "key": {"[1]": {"test_system": "postsynaptic DA receptors", "assay": "Antagonism of the reserpine plus α-methyl-para-tyrosine-induced immobility (neuroleptic syndrome) in rats; motor activity", "conditions": "for Motor activity: 10 mg/kg s.c., reserpine 10 mg/kg + α-methyl-para-tyrosine 250 mg/kg i.p., means ± s.e.m."}, "[2]": {"test_system": "central DA-receptor (pre- and/or postsynaptic)", "assay": "Rat-brain in-vivo tyrosine hydroxylation: Dopa accumulation after NSD 1015 in reserpine-pretreated rats", "conditions": "reserpine-pretreated rats; for Dopa-accumulation; ED50, Limbic / Dopa-accumulation; ED50, Limbic (class symbol): limbic forebrain; for Dopa-accumulation; ED50, Limbic / Dopa-accumulation; ED50, Striatum: half-maximal decrease in Dopa level; for Dopa-accumulation; ED50, Limbic / Dopa-accumulation; ED50, Striatum / Dopa-accumulation; ED50, Limbic (class symbol) / Dopa-accumulation; ED50, Striatum (class symbol): s.c.; for biochemical activity (Dopa accumulation), in words: inactive even at 45 μmol/kg", "experimental": "The compounds under evaluation were tested biochemically for central DA-receptor (pre- and/or postsynaptic) stimulating activity. The concept of this biochemical screening method is that a DA-receptor agonist will stimulate the receptor and through regulatory feedback systems effect a decline in tyrosine hydroxylase activity and thus a subsequent reduction in the synthesis rate for DA in the presynaptic neuron. Dopa formation, as determined after in-vivo inhibition of the aromatic L-amino acid decarboxylase with NSD 1015 (3-hydroxybenzyl-hydrazine hydrochloride), is taken as an indirect measure of DA synthesis rate.\nRats (150-300 g) pretreated with reserpine were given the compounds under evaluation. Gross behavioural observations (changes in motility, stereotypies etc.) were made in order to evaluate possible postsynaptic dopamine receptor activity. subsequent administration of NSD 1015, decapitation, brain dissection [corpora striata, limbic fore-brain and rest of the hemispheral parts (cortex)]homogenization, centrifugation, ion-exchange chromatography and spectro-fluorimetric measurements (all as described in detail by Wikstrom et al., in J. Med. Chem. 21, 864-867, 1978 and references cited therein), gave the actual Dopa levels.\nSeveral doses (n=4-6) were tested in order to obtain dose-response curves for each compound and brain area. The dose of a compound producing a half-maximal decrease in the Dopa level in the rat brain part was then estimated. These values (ED50) are presented in Table I. (Simultaneous determination of the 5-HTP levels was also performed utilizing the same paradigm.)\n^b Rats pretreated with reserpine (10 mg/kg i.p.; 18 h) were given th\ncompounds under evaluation. Fortyfive minutes later they were injected\nwith NSD 1015 (100 mg/kg i.p.) and after a further 30 min they were\ndecapitated, the brains rapidly dissected and taken for determination of\nthe Dopa and 5HTP levels in different areas of the brain. The dose of a\ncompound producing a halfmaximal decrease (ED50) in the Dopa level i\nthe rat brain part was then estimated from doseresponse curves comprising\n4-6 dose levels. (For further details see the text and references)."}, "[3]": {"conditions": "reserpine and α-methyl-para-tyrosine pretreated rats"}},
  "data": [
    {"smiles": "CCCN1CCCC(c2cccc(O)c2)C1", "note": "(stereo not shown) [Compound 3-PPP, 3-(3-hydroxyphenyl)-N-n-propylpiperidine]", "values": [
      {"measurement": "Motor activity", "setting": "[1]", "result": "51 ± 19", "unit": "counts 0-60 min"},
      {"measurement": "antagonism of the reserpine-induced syndrome / behaviour elicited", "setting": "[1]; [3]", "result": "inability of compound 2 to antagonize the reserpine-induced syndrome is shared by the selective Da-autoreceptor agonist 3-PPP"},
      {"measurement": "Dopa-accumulation; ED50, Limbic", "setting": "[2]", "result": 3.6, "unit": "μmol/kg s.c."},
      {"measurement": "Dopa-accumulation; ED50, Striatum", "setting": "[2]", "result": 3.6, "unit": "μmol/kg s.c."}
    ]},
    {"smiles": "CCCN(CCC)[C@@H]1CCc2c(O)cccc2[C@H]1C", "note": "(relative stereo) [trans-1-CH35-OHDPAT, trans-1-methyl-5-hydroxy-2-(di-n-propylamino)tetralin]", "values": [
      {"measurement": "Motor activity", "setting": "[1]", "result": "406 ± 47", "unit": "counts 0-60 min"},
      {"measurement": "motor response / postsynaptic DA-receptor stimulatory effects", "setting": "[1]; comparative study, Table II, s.c.", "result": "strong central postsynaptic DA-receptor stimulatory effects"},
      {"measurement": "antagonism of the reserpine-induced syndrome / behaviour elicited", "setting": "[1]; [3]", "result": "pronounced stereotyped and hyperactive behaviour"},
      {"measurement": "postsynaptic DA-receptor stimulation", "setting": "[1]; [3]", "result": "efficient postsynaptic DA-receptor stimulants"},
      {"measurement": "Dopa-accumulation; ED50, Limbic", "setting": "[2]", "result": 0.66, "unit": "μmol/kg s.c."},
      {"measurement": "Dopa-accumulation; ED50, Striatum", "setting": "[2]", "result": 0.73, "unit": "μmol/kg s.c."}
    ]},
    {"smiles": "CCCNC1CCc2c(O)cccc2C1(C)C", "note": "(stereo not shown) [1,1-di-CH35-OHPAT, 1,1di-CH35-OH2-(n-propylamino)tetralin]", "values": [
      {"measurement": "Dopa-accumulation; ED50, Limbic (class symbol)", "setting": "[2]", "result": "I (Inactive. ED50 > 45 μmol/kg.)"},
      {"measurement": "biochemical activity (Dopa accumulation), in words", "setting": "[2]", "result": "completely inactive"},
      {"measurement": "Dopa-accumulation; ED50, Striatum (class symbol)", "setting": "[2]", "result": "I (Inactive. ED50 > 45 μmol/kg.)"}
    ]},
    {"smiles": "CCCN(CCC)C1CCc2c(O)cccc2C1(C)C", "note": "(stereo not shown) [1,1-di-CH35-OHDPAT, 1,1di-CH35-OH2-(di-n-propylamino) tetralin]", "values": [
      {"measurement": "Dopa-accumulation; ED50, Limbic (class symbol)", "setting": "[2]", "result": "I (Inactive. ED50 > 45 μmol/kg.)"},
      {"measurement": "biochemical activity (Dopa accumulation), in words", "setting": "[2]", "result": "completely inactive"},
      {"measurement": "Dopa-accumulation; ED50, Striatum (class symbol)", "setting": "[2]", "result": "I (Inactive. ED50 > 45 μmol/kg.)"}
    ]}
  ]
}
